# Reference: patent US20140356383A1, “ADMINISTRATION OF AN ANTI-GCC ANTIBODY-DRUG CONJUGATE AND A DNA DAMAGING AGENT IN THE TREATMENT OF CANCER” (priority 2013, published 2014)
# Key:
# [1] = tested on: PHTX-215 Pa s.c. xenograft; test: 5F9 vcMMAE and gemcitabine in PHTX-215 Pa s.c. xenografts (Study CPGC-13-EF10); type: in vivo, CB-17 SCID mice; settings: PHTX-215 Pa s.c. xenograft, CB-17 SCID mice, reference vehicle
# Protocol: Day D0 was the first day of treatment.
# (§1) Tumor volume was calculated using the formula: […]
# Table 77A the annotation table for group symbols. […] A negative dAUC is interpreted as an increase in AUC relative to the reference. It is important to evaluate not only the P value, but also the dAUC. Comparisons with significant P values, but small dAUC values, may not be of interest.
# [2] = tested on: PHTX-11c s.c. xenograft; test: MLN0264 and CPT-11 in PHTX-11c s.c. xenografts (Study CPGC-12-EF01)
# Source text: The objective of this study was to explore the combination activity in a model having moderate level of GCC antigen density yet resistance to the immunoconjugate alone.
# (§2) The endpoints for each treatment group was either a) tumor volume reaches 10% body weight; or b) body weight loss of >20%. The projected tumor volume at the study initiation date was 200 mm^3.
# Not greater than one day prior to dosing, all animals were weighed to the nearest gram and grouped. Dosing solutions were vortexed prior to each administration to ensure correct delivery of compound. Animals received approximately 0.1 ml doses administered I.V. using a 1 cc syringe, 25-30 gauge, ½-¾ inch in length.
# Tumor volume measurements (0.01 mm) were obtained twice per week using Vernier calipers (0.01 mm). Tumor volume was calculated using the formula:
# (§3) Efficacy was evaluated in terms of % tumor growth inhibition (TGI) and tumor growth delay (TGD). TGI was assessed on an arbitrary day (when the maximum tumor volume (MTV of the control treatment group reaches the maximum allowable tumor volume), using the following formula:
# (§4) TGD was assessed by calculating T−C, where T=mean time (in days) for treatment group tumors to reach a predetermined size, and where C=mean time (in days) for the control group tumors to reach a predetermined size (e.g., 1,000 mm^3).
# (§5) To compare pairs of treatment groups, the following mixed-effects linear regression model was fit to the data using the maximum likelihood method:
# The predicted differences in the log tumor values (Yijk−Yi0k, which can be interpreted as log10 (fold change from day 0)) were taken from the above models to calculate mean AUC values for each treatment group. A dAUC value was then calculated as:
# (§6) For synergy analyses, the observed differences in the log tumor values were used to calculate AUC values for each animal. […] The AUC for the control, or vehicle, group was calculated using the predicted values from the pairwise models described above. To address the question of whether the effects of the combination treatments were synergistic, additive, or sub-additive relative to the individual treatments, the following statistics were calculated:
# where Ak and Bk are the k^th animal in the individual treatment groups and ABk is the k^th animal in combination treatment group. AUCctl is the model-predicted AUC for the control group and was treated as a constant with no variability. The standard error of the synergy score was calculated as the square root of the sum of squared standard errors across groups A, B, and AB. The degrees of freedom were estimated using the Welch-Satterthwaite equation. P values were calculated by dividing the synergy score by its standard error and tested against a t-distribution (two-tailed) with the above-calculated degrees of freedom.
# The effect was classified into four different categories. It was considered synergistic if the synergy score was less than 0 and additive if the synergy score wasn't statistically different from 0. […] Interval analysis, if requested, involved a specified treatment group and time interval compared with another treatment group and time interval. For a given group, time interval, and animal, the tumor growth rate per day was estimated by
# [3] = tested on: PHTX-21c s.c. xenograft; test: MLN0264 and 5-Fluorouracil in PHTX-21C s.c. xenografts (Study CPGC-11-EF01); type: in vivo, CB-17 SCID mice; settings: for dAUC: reference vehicle
# Protocol: as §1
# [4] = tested on: PHTX-9c primary human colon tumor xenograft; test: Single agent antitumor activity in PHTX-9c (PHTX-09c) primary human colon tumor xenograft
# Protocol: Female CB-17 SCID mice (eight weeks old) were inoculated subcutaneously (SC) into the flank with PHTX-9c tumor fragments (2 mm×2 mm). Tumor growth was monitored twice per week using vernier calipers and the mean tumor volume was calculated using the formula (0.5×[length×width^2]). When the mean tumor volume reached approximately 150 mm^3 (Study A) or 160 mm^3 (Study B), animals were randomized into treatment groups (n=10/group for Study A and n=9/group for Study B).
# Doses were administered on Days 1, 8, and 15 for the QW schedule and Days 1, 4, 8, 11, 15, and 18 for the BIW schedule. […] The equivalent dose of linker+MMAE is 4% of the 5F9-vcMMAE dose. These calculations are based on a mean 3.9 MMAE molecules per antibody and a free antibody molecular weight of 150 kD. Actual antibody molecular weight will vary slightly due to degree of glycosylation.
# Tumor volume and body weight were measured twice weekly and were continued beyond the treatment period to measure regrowth kinetics, as evidenced by tumor growth delay (TGD). Tumor volume measurements were continued until tumor volume reached 10% of the body weight in a single mouse within a treatment group, at which time the group was terminated. The percentage of tumor growth inhibition (TGI) ([mean tumor volume of the control group—mean tumor volume of a treated group]/mean tumor volume of the control group; a T/C ratio) was determined on Day 20. The T/C ratios across a treatment group were compared to the T/C ratios of the control group using a two-tailed Welch's t-test.
# The differences in the tumor growth trends over time between pairs of treatment groups were assessed using linear mixed effects regression models. These models account for the fact that each animal was measured at multiple time points. A separate model was fit for each comparison, and the areas under the curve (AUC) for each treatment group were calculated using the predicted values from the model. The percent decrease in AUC (dAUC) relative to the reference group was then calculated.
# The 5F9 vcMMAE immunoconjugate was tested for single agent anti-tumor activity in the four primary human tumor xengraft models at varying concentrations in order to explore whether GCC expression levels played a role in tumor sensitivity. […] Free-MMAE was also used as a negative control.
# [5] = tested on: PHTX-09c s.c. xenograft; test: 5F9 vcMMAE and CPT-11 in PHTX-09C s.c. xenografts (Study CPGC-11-EF07); settings: for Days to 1000 mm^3 / Mean tumor volume ± S.E.M (mm3) / T/C / TGI: PHTX-09c
# Protocol: as §2
# Not greater than one day prior to dosing, all animals were weighed to the nearest gram and grouped. Dosing solutions were vortexed prior to each administration to ensure correct delivery of compound. Animals received approximately 0.1 ml doses administered I.V. using a 1 cc syringe, 25-30 gauge, ½-¾ inch in length. Animals were dosed based on an average body weight of 20 grams.
# Tumor volume measurements were obtained twice per week using Vernier calipers (0.01 mm). Tumor volume was calculated using the formula:
# as §3, §4, §5
# The −2 log likelihood of the full model was compared to one without any treatment terms (reduced model) and the difference in the values was tested using a Chi-squared test. The degrees of freedom of the test were calculated as the difference between the degrees of freedom of the full model and that of the reduced model. The predicted differences in the log tumor values (Yijk−Yi0k, which can be interpreted as log10 (fold change from day 0)) were taken from the above models to calculate mean AUC values for each treatment group. A dAUC value was then calculated as:
# as §6
# where Ak and Bk are the k^th animal in the individual treatment groups and ABk is the k^th animal in combination treatment group. AUCctl is the model-predicted AUC for the control group and was treated as a constant with no variability. […] The standard error of the synergy score was calculated as the square root of the sum of squared standard errors across groups A, B, and AB. The degrees of freedom were estimated using the Welch-Satterthwaite equation. P values were calculated by dividing the synergy score by its standard error and tested against a t-distribution (two-tailed) with the above-calculated degrees of freedom.
# [6] = MLN0264 7.5 mg/kg QW i.v., W1-W3
# [7] = Study A, 0.938 mg/kg IV QW × 3 doses
# [8] = Study A, 1.875 mg/kg IV QW × 3 doses
# [9] = Study A, 3.75 mg/kg IV QW × 3 doses
# [10] = Study A, 7.5 mg/kg IV QW × 3 doses
# [11] = Study B, 0.938 mg/kg IV QW × 3 doses
# [12] = Study B, 1.875 mg/kg IV QW × 3 doses
# [13] = Study B, 3.75 mg/kg IV BIW × 6 doses
# [14] = Study B, 3.75 mg/kg IV QW × 3 doses
# [15] = Study B, 7.5 mg/kg IV QW × 3 doses
# [16] = Study B, 10.0 mg/kg IV QW × 3 doses
substance,measurement,setting,value
5F9 vcMMAE: 5F9 mAb conjugated to MMAE using a vc (Val-Cit) linker; average drug loading about 3.6,"dAUC (percent decrease in treatment AUC relative to reference group V, vehicle)",[1]; group A: MLN0264 3.75 mg/kg IV QW,36.3%
same,"dAUC (percent decrease in treatment AUC relative to reference group V, vehicle)",[1]; group B: MLN0264 7.5 mg/kg IV QW,75.1%
same,Days to 1000 mm^3,[2]; [6],13.5 days
same,Mean tumor volume ± S.E.M,[2]; [6],1263.4 ± 115.8 mm3
same,T/C,[2]; [6],0.62
same,TGD,[2]; [6],4.7 days
same,TGI,[2]; [6],37.7%
same,single agent anti-tumor activity,"[2]; PHTX-11c, 7.5 mg/kg",very low activity
same,dAUC,"[2]; group A: MLN0264 7.5 mg/kg QW, reference vehicle",22.6%
same,single agent anti-tumor activity,"[3]; PHTX-21c, 3.75 mg/kg",relatively low anti-tumor activity
same,dAUC,[3]; group C: MLN0264 3.75 mg/kg QW,38.5%
same,dAUC,[3]; group D: MLN0264 7.5 mg/kg QW,74.0%
same,day tumors start to re-grow,"[4]; PHTX-09c, 7.5 mg/kg and 10 mg/kg",~40 days
same,anti-tumor activity maintained post-dosing,"[4]; PHTX-09c, 7.5 mg/kg and 10 mg/kg, last dose on day 15",3 weeks
same,single agent anti-tumor activity,"[4]; PHTX-09c, 1.875-10 mg/kg I.V. QW×3 weeks",strong
same,T/C,"[4]; PHTX-09c, dose 0.938-10 mg/kg, QW, T/C=volume of tumor/control",0.09
same,BW change (mean maximum percent),[4]; [7],9.0%
same,TGD,[4]; [7],3.3 days
same,TGI,"[4]; Study A, 0.938 mg/kg IV QW × 3 doses, Day 20",21.4 (p > 0.05) %
same,BW change (mean maximum percent),[4]; [8],10.6%
same,TGD,[4]; [8],8.2 days
same,TGI,"[4]; Study A, 1.875 mg/kg IV QW × 3 doses, Day 20",44.7 (p > 0.001) %
same,BW change (mean maximum percent),[4]; [9],9.0%
same,TGD,[4]; [9],17.8 days
same,TGI,"[4]; Study A, 3.75 mg/kg IV QW × 3 doses, Day 20",65.3 (p > 0.001) %
same,BW change (mean maximum percent),[4]; [10],7.5%
same,days until first tumor >1000 mm^3,[4]; [10],(>58 days
same,TGI,"[4]; Study A, 7.5 mg/kg IV QW × 3 doses, Day 20",84.1 (p > 0.001) %
same,BW change (mean maximum percent),[4]; [11],−2.3%
same,TGD,[4]; [11],3.8 days
same,TGI,"[4]; Study B, 0.938 mg/kg IV QW × 3 doses, Day 20",20.7 (p > 0.001) %
same,BW change (mean maximum percent),[4]; [12],5.6%
same,TGD,[4]; [12],6.6 days
same,TGI,"[4]; Study B, 1.875 mg/kg IV QW × 3 doses, Day 20",41.3 (p > 0.001) %
same,BW change (mean maximum percent),[4]; [13],−1.8%
same,TGD,[4]; [13],31.9 days
same,TGI,"[4]; Study B, 3.75 mg/kg IV BIW × 6 doses, Day 20, 3.75 mg/kg",84.9 (p > 0.001) %
same,BW change (mean maximum percent),[4]; [14],−2.2%
same,TGD,[4]; [14],16 days
same,TGI,"[4]; Study B, 3.75 mg/kg IV QW × 3 doses, Day 20",65.7 (p > 0.001) %
same,BW change (mean maximum percent),[4]; [15],6.5%
same,days until first tumor >1000 mm^3,[4]; [15],(>47 days
same,TGI,"[4]; Study B, 7.5 mg/kg IV QW × 3 doses, Day 20",84.3 (p > 0.001) %
same,BW change (mean maximum percent),[4]; [16],7.2%
same,days until first tumor >1000 mm^3,[4]; [16],(>56 days
same,TGI,"[4]; Study B, 10.0 mg/kg IV QW × 3 doses, Day 20, 10 mg/kg",91.2 (p > 0.001) %
same,greatest maximum body weight loss during treatment period,"[4]; Study B, day 7, 0.18 mg/kg MMAE group and 0.938 mg/kg 5F9-vcMMAE group",2.3%
same,TGI,"[4]; both studies (A and B), 0.938 mg/kg IV QW",20.7-21.4%
same,TGI,"[4]; both studies (A and B), 1.875 mg/kg IV QW",41.3-44.7%
same,TGI,"[4]; both studies (A and B), 3.75 mg/kg IV QW",65.3-65.7%
same,TGI,"[4]; both studies (A and B), 7.5 mg/kg IV QW",84.1-84.3%
same,single agent activity,[5]; PHTX-09c (FIGS. 8B and 8C),strong
same,Days to 1000 mm^3,[5]; ML0264 1.875 mg/kg i.v. QW ×3,>23 days
same,Mean tumor volume ± S.E.M (mm3),[5]; ML0264 1.875 mg/kg i.v. QW ×3,888.5 ± 126.2 mm3
same,T/C,[5]; ML0264 1.875 mg/kg i.v. QW ×3,0.82
same,TGI,[5]; ML0264 1.875 mg/kg i.v. QW ×3,18.1%
same,Days to 1000 mm^3,[5]; ML0264 3.75 mg/kg i.v. QW ×3,>23 days
same,Mean tumor volume ± S.E.M (mm3),[5]; ML0264 3.75 mg/kg i.v. QW ×3,861.1 ± 155.9 mm3
same,T/C,[5]; ML0264 3.75 mg/kg i.v. QW ×3,0.79
same,TGI,[5]; ML0264 3.75 mg/kg i.v. QW ×3,20.6%
same,dAUC,"[5]; Treated group A (ML0264 1.875 mg/kg) vs reference V (vehicle), percent decrease in AUC",16.1%
same,dAUC,[5]; Treated group B (ML0264 3.75 mg/kg) vs reference V (vehicle),25.4%
